# Data from the supplement of paper PMC10307832.
# Assays:
# Assay in all cases: relative viability (nuclei count vs DMSO), 5 days (fraction); higher = more cells survive
# Staurosporine = compound: CN[C@@H]1C[C@H]2O[C@@](C)([C@@H]1OC)n1c3ccccc3c3c4c(c5c6ccccc6n2c5c31)C(=O)NC4 [Staurosporine]
# Method in brief: (§1)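 After an overnight hold at 37 °C, lung cancer cell lines in 1536-well plates were pinned with five library-drug doses (not always all listed), each √10 from the next, on vehicle-anchored plates. The cells stayed 5 days without fresh medium, then a one-step fix, permeabilisation and Hoechst stain preceded 4× imaging and MetaXpress nuclear counts. A plate passed only with control CV under 25% and at least one doubling. Viability is the median, over plates, of treated-well nuclei relative to vehicle-well nuclei.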
# Sulindac = compound: CC1=C(CC(=O)O)c2cc(F)ccc2/C1=C\c1ccc([S+](C)[O-])cc1 [Sulindac]
# Method in brief: as §1
# 5-Fluorouracil = compound: O=c1[nH]cc(F)c(=O)[nH]1 [5-Fluorouracil]
# Method in brief: as §1
# Sulindac + Foretinib = compound: CC1=C(CC(=O)O)c2cc(F)ccc2/C1=C\c1ccc([S+](C)[O-])cc1 [Sulindac] + COc1cc2c(Oc3ccc(NC(=O)C4(C(=O)Nc5ccc(F)cc5)CC4)cc3F)ccnc2cc1OCCCN1CCOCC1 [Foretinib] (partner 0.25 µM)
# Method in brief: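 Relative viability divides the nuclei count in treated wells by that in vehicle wells. Lung cancer cell lines were seeded in 1536-well plates, dosed by pin tool the next day, and fixed and stained after 5 days in one step with final 0.05% Triton X-100, 1% formaldehyde and 1 ug/ml Hoechst. Dosing was a single drug or a fixed anchor-drug dose plus five library-drug doses (not always all listed) in √10 steps, and values are medians of duplicate plates imaged at 4×.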
Cell Line,relative viability (Staurosporine; 0.005 µM),relative viability (Staurosporine; 0.01581 µM),relative viability (Staurosporine; 0.05 µM),relative viability (Staurosporine; 0.1581 µM),relative viability (Staurosporine; 0.5 µM),relative viability (Sulindac; 0.08 µM),relative viability (Sulindac; 0.253 µM),relative viability (Sulindac; 0.8 µM),relative viability (Sulindac; 2.53 µM),relative viability (Sulindac; 8 µM),relative viability (5-Fluorouracil; 0.02 µM),relative viability (5-Fluorouracil; 0.2 µM),relative viability (5-Fluorouracil; 0.6325 µM),relative viability (5-Fluorouracil; 2 µM),relative viability (Sulindac + Foretinib; first compound 0.08 µM),relative viability (Sulindac + Foretinib; first compound 0.253 µM),relative viability (Sulindac + Foretinib; first compound 0.8 µM),relative viability (Sulindac + Foretinib; first compound 2.53 µM),relative viability (Sulindac + Foretinib; first compound 8 µM)
NCI-H358,1.03,0.326,0.203,0.117,0.104,0.918,1.01,0.74,0.999,1.16,1,1.05,0.882,0.584,0.85,0.763,0.572,0.621,0.826
BEN,1.12,0.905,0.516,0.396,0.237,1.13,0.963,0.853,0.967,1.16,0.912,0.865,0.68,0.675,0.834,0.693,0.57,0.569,0.771
NCI-H460,0.963,0.762,0.824,0.0553,0.0329,1.29,1.06,0.906,0.976,1.06,0.99,0.72,0.165,0.0713,1.3,1.12,0.667,1.02,1.08
ChaGo-K-1,1.03,–,0.871,0.307,0.228,1.09,1.02,0.863,1.03,1.12,1.01,0.964,0.766,0.612,1.05,0.999,0.925,0.991,0.926
SK-MES-1,0.572,0.334,0.213,0.217,0.127,1.18,1.14,0.818,1.08,1.1,1.04,0.634,0.364,0.316,1.13,1.38,0.372,0.88,1.02
SW 900,0.624,0.368,0.297,0.19,0.102,0.644,0.939,–,0.601,0.928,0.693,0.883,0.859,0.476,–,0.645,–,0.948,1.11
NCI-H2085,0.833,0.586,0.624,0.361,0.285,0.919,1,0.891,0.971,1.04,0.931,1.02,0.989,0.813,0.763,0.987,0.882,0.914,1.08
LC-2-ad,0.929,0.256,0.381,0.17,0.129,1.19,1.03,0.845,0.978,1.1,0.987,0.946,0.53,0.298,0.855,1.01,0.877,0.872,1.02
